Source: patent US8933224B2, “Triazine derivatives” (Pfizer Inc., priority 2013, dated 2015)

Key:
[1] = target: human recombinant PDE10 enzyme (PDE10A) (Homo sapiens, UniProt Q9Y233); test: PDE10 scintillation proximity assay (SPA), inhibition of human recombinant PDE10 enzyme activity; assay type: biochemical; conditions: geometric mean of 2-4 determinations unless otherwise indicated (b: ≧5 determinations; c: single determination)
Description: PDE10 activity was measured using a scintillation assay (SPA-based method) similar to that previously described by Seeger, T. F. et al., Brain Research 985 (2003) 113-126. The compounds' relative activity as PDE10 inhibitors was investigated by assaying a fixed amount of enzyme in the presence of the test compound and low substrate concentration (cAMP) such that an IC50 could be determined. […] The assay is performed in a 384-well format with 50 μL assay buffer (50 mM TRIS pH 7.5; 1.3 mM MgCl2; 0.01% Brij) containing enough PDE10 to convert ˜20% of 20 nM ^3H-cAMP, and a range of inhibitors. Reactions are incubated for 30 minutes at 25° C. The addition of 20 μL of 8 mg/ml yttrium silicate SPA beads (PerkinElmer) stops the reaction. The plates are sealed (TopSeal, PerkinElmer) and the beads are allowed to settle for 8 hrs, after which they are read on the Trilux Microbeta overnight. ^1Rat enzyme preparation:^2Human enzyme preparation:
Human PDE10A coding sequence (amino acids 21 to 797 from the sequence with accession number NP_001124162.1) was synthesized using codon optimization for insect expression and cloned into the baculovirus expression vector pFastBac (Invitrogen) engineered to include a N-terminal His6 affinity tag to aid in purification as described in Seeger, T. F. et al., Brain Research 985 (2003) 113-126. The recombinant Bacmid was isolated and used to transfect sf9 insect cells to generate a viral stock. To generate cell paste for purification, sf21 cells were infected with the virus stock and cells were harvested 72 hours after infection as described in Seeger, T. F. et al., Brain Research 985 (2003) 113-126. Insect cell paste was lysed and after centrifugation, the supernatant was chromatographed on Ni-NTA agarose (Qiagen) as described in Seeger, T. F. et al., Brain Research 985 (2003) 113-126. Ni-NTA agarose eluting fractions containing PDE10A were chromatographed on Superdex 200 (GE Healthcare Life Sciences) in 50 mM Tris HCl pH 7.5, 150 mM NaCl, 1 mM EDTA, 10% glycerol, 2 mM TCEP, 1.5 mM benzamidine, EDTA-free protease inhibitors (Roche), and 5 μM E-64.

[2] = target: rat PDE10 enzyme (Rattus norvegicus (Rat), UniProt Q9QYJ6); test: PDE10 scintillation proximity assay (SPA), inhibition of rat PDE10 enzyme activity; assay type: biochemical; conditions: geometric mean of 2-4 determinations unless otherwise indicated (b: ≧5 determinations; c: single determination)
rat PDE10 enzyme, sequence (Q9QYJ6 24-794): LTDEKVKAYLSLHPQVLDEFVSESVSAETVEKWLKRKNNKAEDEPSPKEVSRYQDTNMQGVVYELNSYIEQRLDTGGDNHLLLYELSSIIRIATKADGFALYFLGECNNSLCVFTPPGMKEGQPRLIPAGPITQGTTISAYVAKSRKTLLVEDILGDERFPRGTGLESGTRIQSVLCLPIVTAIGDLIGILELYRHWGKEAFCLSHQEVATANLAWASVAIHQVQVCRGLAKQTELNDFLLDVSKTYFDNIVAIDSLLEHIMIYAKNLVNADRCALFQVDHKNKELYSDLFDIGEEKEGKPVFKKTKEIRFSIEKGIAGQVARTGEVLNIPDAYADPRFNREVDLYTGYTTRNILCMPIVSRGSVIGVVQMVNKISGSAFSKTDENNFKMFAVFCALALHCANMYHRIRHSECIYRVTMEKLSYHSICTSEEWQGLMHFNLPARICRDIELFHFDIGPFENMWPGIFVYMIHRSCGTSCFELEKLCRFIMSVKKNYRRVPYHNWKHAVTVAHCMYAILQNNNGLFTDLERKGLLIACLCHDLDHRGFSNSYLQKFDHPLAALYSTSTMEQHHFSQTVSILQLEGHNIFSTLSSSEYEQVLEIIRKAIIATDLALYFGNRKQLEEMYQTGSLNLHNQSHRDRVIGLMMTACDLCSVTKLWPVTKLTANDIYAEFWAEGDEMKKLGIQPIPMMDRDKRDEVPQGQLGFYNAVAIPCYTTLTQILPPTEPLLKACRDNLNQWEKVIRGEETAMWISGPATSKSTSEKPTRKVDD
Summary of the method: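 SPA with fixed recombinant PDE10 (Sf21-expressed, Ni-NTA and Mono Q purified) converting ~20% of 20 nM ³H-cAMP in 50 mM TRIS pH 7.5, 1.3 mM MgCl2, 0.01% Brij, across an inhibitor range.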

Cc1nc(-c2ccccc2F)c2c(N3CCc4nc(C5CC5)nc(C(F)(F)F)c4C3)ncnn12 [Example 90, 2-cyclopropyl-6-[5-(2-fluorophenyl)-7-methylimidazo[5,1-f][1,2,4]triazin-4-yl]-4-(trifluoromethyl)-5,6,7,8-tetrahydropyrido[4,3-d]pyrimidine]
IC50 [1]: 4.55 nM
IC50 [2]: 3.09 nM

Cc1nc([C@@H]2CCOC2)c2c(N3CCc4cnn(C(C)C)c4C3)ncnn12 [Example 91]
IC50 [1]: 0.61 nM
IC50 [2]: 0.793 nM

Cc1nc(-c2ccccc2F)c2c(N3CCc4cnn(C(C)C)c4C3)ncnn12 [Example 92, 5-(2-fluorophenyl)-7-methyl-4-[1-(propan-2-yl)-1,4,5,7-tetrahydro-6H-pyrazolo[3,4-c]pyridin-6-yl]imidazo[5,1-f][1,2,4]triazine]
IC50 [1]: 0.664 nM
IC50 [2]: 0.997 nM

Cc1nc(C2CCOCC2)c2c(N3CCc4ncccc4C3)ncnn12 [Example 95, 6[7-methyl-5-(tetrahydro-2H-pyran-4-yl)imidazo[5,1-f][1,2,4]triazin-4-yl]-5,6,7,8-tetrahydro-1,6-naphthyridine]
IC50 [1]: 8.82 nM
IC50 [2]: 10.1 nM

Cc1nc([C@H]2CCOC2)c2c(N3CCc4ncccc4C3)ncnn12 [Example 96, 6-{7-methyl-5-[(3R)-tetrahydrofuran-3-yl]imidazo[5,1-f][1,2,4]triazin-4-yl}-5,6,7,8-tetrahydro-1,6-naphthyridine]
IC50 [1]: 4.8 nM
IC50 [2]: 5.2 nM

Cc1ncc2c(n1)CCN(c1ncnn3c(C)nc(-c4ccccc4F)c13)C2 [Example 111, 6-[5-(2-fluorophenyl)-7-methylimidazo[5,1-f][1,2,4]triazin-4-yl]-2-methyl-5,6,7,8-tetrahydropyrido[4,3-d]pyrimidine]
IC50 [1]: 18.6 nM
IC50 [2]: 6.85 nM

Cc1nc(-c2ccccc2F)c2c(N3CCc4c(c(C(F)(F)F)nn4C)C3)ncnn12 [Example 118, 5-(2-fluorophenyl)-7-methyl-4-[1-methyl-3-(trifluoromethyl)-1,4,6,7-tetrahydro-5H-pyrazolo[4,3-c]pyridin-5-yl]imidazo[5,1-f][1,2,4]triazine]
IC50 [1]: 1.28 nM
IC50 [2]: 0.943 nM

Cc1nc(C)c2c(n1)CCN(c1ncnn3c(C)nc(-c4ccccc4F)c13)C2 [Example 130, 6-[5-(2-fluorophenyl)-7-methylimidazo[5,1-f][1,2,4]triazin-4-yl]-2,4-dimethyl-5,6,7,8-tetrahydropyrido[4,3-d]pyrimidine]
IC50 [1]: 2.34 nM
IC50 [2]: 1.65 nM

CCc1nc(C)nc2c1CN(c1ncnn3c(C)nc(-c4ccccc4F)c13)CC2 [Example 131, 4-ethyl-6-[5-(2-fluorophenyl)-7-methylimidazo[5,1-f][1,2,4]triazin-4-yl]-2-methyl-5,6,7,8-tetrahydropyrido[4,3-d]pyrimidine]
IC50 [1]: 0.573 nM
IC50 [2]: 0.456 nM

CCc1nc(C)nc2c1CN(c1ncnn3c(C)nc([C@@H]4CCOC4)c13)CC2 [Example 133, 4-ethyl-2-methyl-6-{7-methyl-5-[(3S)-tetrahydrofuran-3-yl]imidazo[5,1-f][1,2,4]triazin-4-yl}-5,6,7,8-tetrahydropyrido[4,3-d]pyrimidine]
IC50 [1]: 0.625 nM
IC50 [2]: 0.37 nM

Cc1ncc2c(n1)CCN(c1ncnn3c(C)nc([C@@H]4CCOC4)c13)C2 [Example 134, 2-methyl-6-{7-methyl-5-[(3S)-tetrahydrofuran-3-yl]imidazo[5,1-f][1,2,4]triazin-4-yl}-5,6,7,8-tetrahydropyrido[4,3-d]pyrimidine]
IC50 [1]: 4.51 nM
IC50 [2]: 2.44 nM

CCc1nc(C2CC2)nc2c1CN(c1ncnn3c(C)nc([C@@H]4CCOC4)c13)CC2 [Example 137]
IC50 [1]: 0.0777 nM
IC50 [2]: 0.095 nM

Cc1ccc2c(n1)CCN(c1ncnn3c(C)nc([C@@H]4CCOC4)c13)C2 [Example 139, 2-methyl-6-{7-methyl-5-[(3S)-tetrahydrofuran-3-yl]imidazo[5,1-f][1,2,4]triazin-4-yl}-5,6,7,8-tetrahydro-1,6-naphthyridine]
IC50 [1]: 0.279 nM
IC50 [2]: 0.27 nM

Cc1nc([C@@H]2CCOC2)c2c(N3CCc4nc(C5CC5)n(C)c(=O)c4C3)ncnn12 [Example 143, 2-cyclopropyl-3-methyl-6-{7-methyl-5-[(3S)-tetrahydrofuran-3-yl]imidazo[5,1-f][1,2,4]triazin-4-yl}-5,6,7,8-tetrahydropyrido[4,3-d]pyrimidin-4(3H)-one]
IC50 [1]: 0.219 nM
IC50 [2]: 0.106 nM

CCOc1nc(C2CC2)nc2c1CN(c1ncnn3c(C)nc([C@@H]4CCOC4)c13)CC2 [Example 148, 2-cyclopropyl-4-ethoxy-6-{7-methyl-5-[(3S)-tetrahydrofuran-3-yl]imidazo[5,1-f][1,2,4]triazin-4-yl}-5,6,7,8-tetrahydropyrido[4,3-d]pyrimidine]
IC50 [1]: 0.166 nM
IC50 [2]: 0.125 nM

CNc1ccc2c(n1)CCN(c1ncnn3c(C)nc([C@@H]4CCOC4)c13)C2 [Example 152, N-methyl-6-{7-methyl-5-[(3S)-tetrahydrofuran-3-yl]imidazo[5,1-f][1,2,4]triazin-4-yl}-5,6,7,8-tetrahydro-1,6-naphthyridin-2-amine]
IC50 [1]: 0.333 nM
IC50 [2]: < 0.13 nM

Cc1nc(-c2ccccc2F)c2c(N3CCc4cnn(C5CC5)c4C3)ncnn12 [Example 156, 4-(1-cyclopropyl-1,4,5,7-tetrahydro-6H-pyrazolo[3,4-c]pyridin-6-yl)-5-(2-fluorophenyl)-7-methylimidazo[5,1-f][1,2,4]triazine]
IC50 [1]: 1 nM
IC50 [2]: 0.905 nM

Cc1nc([C@@H]2CCOC2)c2c(N3CCc4ccc(C(F)(F)F)nc4C3)ncnn12 [Example 157, 7-{7-methyl-5-[(3S)-tetrahydrofuran-3-yl]imidazo[5,1-f][1,2,4]triazin-4-yl}-2-(trifluoromethyl)-5,6,7,8-tetrahydro-1,7-naphthyridine]
IC50 [1]: 0.295 nM
IC50 [2]: 0.196 nM

Cc1nc(-c2ccccc2F)c2c(N3CCc4ccc(C(F)(F)F)nc4C3)ncnn12 [Example 159, 7-[5-(2-fluorophenyl)-7-methylimidazo[5,1-f][1,2,4]triazin-4-yl]-2-(trifluoromethyl)-5,6,7,8-tetrahydro-1,7-naphthyridine]
IC50 [1]: 21.2 nM
IC50 [2]: 9.7 nM

Cc1nc([C@@H]2CCOC2)c2c(N3CCc4cc(C5CC5)ncc4C3)ncnn12 [Example 161, 6-cyclopropyl-2-{7-methyl-5-[(3S)-tetrahydrofuran-3-yl]imidazo[5,1-f][1,2,4]triazin-4-yl}-1,2,3,4-tetrahydro-2,7-naphthyridine]
IC50 [1]: 0.468 nM
IC50 [2]: 0.163 nM

Cc1nc(-c2ccccc2F)c2c(N3CCc4cc(C5CC5)ncc4C3)ncnn12 [Example 162, 6-cyclopropyl-2-[5-(2-fluorophenyl)-7-methylimidazo[5,1-f][1,2,4]triazin-4-yl]-1,2,3,4-tetrahydro-2,7-naphthyridine]
IC50 [1]: 5.21 nM
IC50 [2]: 2.16 nM

Cc1cc2c(cn1)CN(c1ncnn3c(C)nc([C@@H]4CCOC4)c13)CC2 [Example 163, 6-methyl-2-{7-methyl-5-[(3S)-tetrahydrofuran-3-yl]imidazo[5,1-f][1,2,4]triazin-4-yl}-1,2,3,4-tetrahydro-2,7-naphthyridine]
IC50 [1]: 1.78 nM
IC50 [2]: 1.19 nM

Cc1cc2c(cn1)CN(c1ncnn3c(C)nc(-c4ccccc4F)c13)CC2 [Example 164, 2-[5-(2-fluorophenyl)-7-methylimidazo[5,1-f][1,2,4]triazin-4-yl]-6-methyl-1,2,3,4-tetrahydro-2,7-naphthyridine]
IC50 [1]: 5.92 nM
IC50 [2]: 3.32 nM

CCn1ncc2c1CN(c1ncnn3c(C)nc([C@@H]4CCOC4)c13)CC2 [Example 165, 4-(1-ethyl-1,4,5,7-tetrahydro-6H-pyrazolo[3,4-c]pyridin-6-yl)-7-methyl-5-[(3S)-tetrahydrofuran-3-yl]imidazo[5,1-f][1,2,4]triazine]
IC50 [1]: 1.02 nM
IC50 [2]: 0.766 nM

CCn1ncc2c1CN(c1ncnn3c(C)nc(-c4ccccc4F)c13)CC2 [Example 166, 4-(1-ethyl-1,4,5,7-tetrahydro-6H-pyrazolo[3,4-c]pyridin-6-yl)-5-(2-fluorophenyl)-7-methylimidazo[5,1-f][1,2,4]triazine]
IC50 [1]: 0.801 nM
IC50 [2]: 0.435 nM

Cc1nc([C@@H]2CCOC2)c2c(N3Cc4c(cnn4C)C(C)C3)ncnn12 (stereo partly drawn) [Example 167, 4-(1,4-dimethyl-1,4,5,7-tetrahydro-6H-pyrazolo[3,4-c]pyridin-6-yl)-7-methyl-5-[(3S)-tetrahydrofuran-3-yl]imidazo[5,1-f][1,2,4]triazine]
IC50 [1]: 4.11 nM
IC50 [2]: 4.47 nM
